This is an account of results in US7056509B2 (Board of Regents The University of Texas System, priority 1999, dated 2006).

The conditions of series [1]: patients having progressive disease before treatment; cited from earlier work.
The target in series [2] is T1, VEGF and VEGF:Flk-1 (Homo sapiens, UniProt P15692).
T1 sequence (P15692 27-191 isoform P15692-4): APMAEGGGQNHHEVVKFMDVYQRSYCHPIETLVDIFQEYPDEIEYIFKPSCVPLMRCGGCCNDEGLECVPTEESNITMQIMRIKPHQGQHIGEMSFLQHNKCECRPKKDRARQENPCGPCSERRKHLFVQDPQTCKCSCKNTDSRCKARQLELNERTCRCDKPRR
Kind of series: Indirect and capture ELISA for reactivity with VEGF alone or VEGF associated with sFlk-1. The format is binding. The settings on record: VEGF alone or VEGF associated with sFlk-1 (VEGF:Flk-1). The procedure: The Flk-1/SEAP protein was produced and purified as described by Tessler et al. (1994). Basically, the extracellular domain of Flk-1 (sFlk-1) was produced in Spodoptera frugiperda (Sf9) cells and purified by immunoaffinity techniques utilizing a monoclonal anti-Flk-1 antibody (1A8). sFlk-1 was then biotinylated and bound on avidin-coated plates.
The reactivity was determined as described above for the initial screening.
A capture ELISA was also developed. In the capture ELISA, microtiter plates were-coated overnight at 4° C. with 100 ng of the indicated antibody. […] Streptavidin conjugated to peroxidase (Kirkegaard & Perry Laboratories, Inc.), diluted 1:2000, was used as a second layer and developed.

The target in series [3] is T2, VEGF (Homo sapiens, UniProt P15692).
T2 sequence (P15692 27-191 isoform P15692-4): T1 sequence (P15692 27-191 isoform P15692-4)
Kind of series: Competition ELISA (epitope groups, cross-blocking). The format is binding. The settings on record: ELISA cross-blocking studies of 2C3 with A4.6.1. The procedure: Competition ELISA studies were performed by first labeling the antibodies with peroxidase according to the manufacturer's instructions (EZ-Link Activated Peroxidase, Pierce). […] Approximately 0.5–2.0 μg/ml of peroxidase labeled test antibody was incubated on the plate in the presence of either buffer alone, an irrelevant IgG, or the other anti-VEGF competing antibodies in a 10–100 fold excess.
The assay was done in triplicate at least twice for each combination of labeled and competitor antibody. Two antibodies were considered to be in the same epitope group if they cross-blocked each other's binding by greater than 80%.

Series [4] relates to ABAE cells. Kind of series: Endothelial cell growth assay (VEGF-mediated growth, MTS). The format is cell-based, bovine.
Experimental: Adult bovine aortic endothelial (ABAE) cells were plated into 96-well tissue culture plates at 1500 cells/well and grown in the presence of 0.5 nM human VEGF with the addition of the various sample and control antibodies. Control wells received media with or without VEGF.
After 4 days of incubation, the cells were quantified by an MTS (3-(4,5-dimethylthiazol-2-yl)-5-(3-carboxylmethoxyphenyl)-2-(4-sulfophenyl)-2H-tetrazolium, inner salt) conversion assay, where MTS conversion to a formazan is proportional to cell number and can be followed by absorbance at 490 nm (Cell Titer 96 AQueous One Solution Cell Proliferation Assay, Promega, Madison, Wis.). The assay was performed according to the manufacturer's instructions.
Cell growth was estimated by subtracting the MTS conversion in cultures to which VEGF was not added. Results were expressed as a percentage of the MTS conversion in control cultures to which only VEGF was added (Buttke et al., 1993).
In series [5] the test system is NCI-H358 NSCLC and HT29 colon adenocarcinoma xenografts. Description: In vivo localization to human tumor xenografts in tumor-bearing mice. Further details: species or system mouse. The settings on record: i.v. 24 hours prior to sacrifice; 3E7 and GV39M bound tumor vascular endothelium, 2C3 tumor stroma. On the technique in general: In xenograft studies the graft and the host belong to different species.
Experimental: Tumors were grown subcutaneously in immunocompromised mice (NCI-H358 NSCLC in nu/nu mice and HT29 colon adenocarcinoma in SCID mice) until the tumor volume was approximately 1 cm^3. 100 μg of unlabeled antibody for studies using SCID mice, or 100 μg of biotinylated antibody for studies using nude mice, was injected intravenously via a tail vein. Twenty four hours later, the mice were anesthetized, perfused with PBS, and tumor and organs including heart, lungs, liver, kidneys, intestines and spleen were collected and snap frozen in liquid nitrogen.
The tumor and organs from each mouse were sectioned on a cryostat and stained for antibody immunohistochemically as above, with the exception that sections from the nude mice were developed using peroxidase labeled streptavidin-biotin complex (Dako, Carpinteria, Calif.) and the sections from the SCID mice were developed using two peroxidase-conjugated secondary antibodies, a goat anti-mouse IgG+IgM followed by a rabbit anti-goat IgG.
100 μg of GV39M and 3E7 or isotype-matched control IgG were injected into SCID mice bearing HT29 human colonic adenocarcinomas. Twenty-four hours later, the mice were sacrificed, exsanguinated and the tumors and tissues were removed.

The test system of series [6] is VEGFR2 (KDR/Flk-1). Description: ELISA of VEGF binding to VEGFR2-coated wells in presence of antibody. Also noted: species or system mouse. The settings on record: 1000-fold molar excess of antibody over VEGF (1 nM). (In general: ELISA stands for enzyme-linked immunosorbent assay.)
Series [7] concerns VEGFR2 in PAE/KDR cells. Description: VEGF-induced phosphorylation of VEGFR2 (immunoprecipitation and western blot). The settings on record: antibody at 100 nM, 15 min. The format is cell-based, porcine. As to the method: PAE/KDR, PAE/FLT, and bEND.3 cells were grown to 80–90% confluency in 100 mm tissue dishes in media containing 5% serum. The cells were then serum starved for 24 hours in media containing 0.1% serum. After pretreatment with […] in PBS for 30 min, the cells were incubated with 5 nM (200 ng/ml) VEGF165, 5 nM (100 ng/ml) bFGF (R&D Systems, Minneapolis, Minn.), or A673 tumor conditioned media in the presence or absence of control or test antibodies for additional 15 min.
The cells were then washed with ice-cold PBS containing 10 mM EDTA, 2 mM sodium fluoride, and 2 mM sodium orthovanadate and lysed in lysis buffer (50 mM Tris, 150 mM NaCl, 1% Nonidet P-40, 0.25% sodium deoxycholate, 0.1% CHAPS, 5 mM EDTA, 1.5 mM MgCl2, 2 mM sodium fluoride, 2 mM sodium orthovanadate, 10% glycerol and protease inhibitors (Complete Protease Inhibitor Cocktail tablets, Boehringer Mannheim)). The lysates were clarified by centrifugation and resulting supernatant used for immunoprecipitation.
The reactions using the chicken anti-FLT-1 antibody were subsequently incubated with a bridging goat anti-chicken antibody (Kirkegaard and Perry Laboratories, Inc.) for 1 h at 4° C. […]
On the technique in general: A western blot detects proteins with antibodies after separation by electrophoresis.

Series [8] relates to NCI-H358 NSCLC. Description: In vivo tumor growth inhibition, newly-implanted NCI-H358. Also noted: species or system mouse. As to the method: (§1) Nu/nu mice were injected subcutaneously with either 1×10^7 NCI-H358 NSCLC cells or 5×10^6 A673 rhabdomyosarcoma cells on day 0. […] The tumors were then measured twice per wk for a period of approximately six wk for the NCI-H358 bearing mice and four wk for the A673 bearing mice. Tumor volume was calculated according to the formula: volume=L×W×H, where L=length, W=width, H=height.

Series [9] concerns A673 rhabdomyosarcoma. Description: In vivo tumor growth inhibition, newly-implanted A673. Also noted: species or system mouse. The procedure:
as §1

Series [10] deals with NCI-H358 NSCLC tumors. Kind of series: In vivo tumor therapy, established NCI-H358 xenografts. Also noted: species or system mouse. As to the method: (§2) Male nu/nu mice bearing subcutaneous NCI-H358 tumors or HT1080 fibrosarcoma 200–400 mm^3 in size were injected i.p. with test or control antibodies. The NCI-H358 bearing mice were treated with 100 μg of antibodies per injection three times a week during the first week and twice a week during the second and third week. The mice were then switched to 50 μg per injection every five days. The HT1080 bearing mice were treated with 100 μg of the indicated antibody or saline every other day throughout the duration of the study. In both studies, mice were sacrificed when their tumors reached 2500 mm^3 in size or earlier if tumors began to ulcerate.
Doses were 50–100 μg every 3–5 days. […] In addition to measuring mean tumor volume (FIG. 4), photographs of the mice from each treatment group were also taken to show the differences in tumor size and appearance at the end of the study.

Series [11] concerns HT1080 fibrosarcoma. Kind of series: In vivo tumor therapy, established HT1080 xenografts. Also noted: species or system mouse. The settings on record: 100 μg i.p. every other day. The procedure:
as §2

Series [12] has as its system A673 rhabdomyosarcoma. Kind of series: Treatment of mice with established A673 tumors. The format is in vivo, mouse.
Series [13] deals with LS174T colon adenocarcinoma. Kind of series: LS174T tumor model in mice. The format is in vivo, mouse. The settings on record: mice with established tumors.
For series [14], the system named is VEGFR2 (KDR/Fc). Kind of series: Coprecipitation assay, VEGF with VEGFR2/Fc in solution. In kind it is binding. The settings on record: 40 ng VEGF, 200 ng receptor/Fc, F(ab′)2 of antibody. As to the method:
200 ng of soluble forms of VEGFR1 (Flt-1/Fc) or VEGFR2 (KDR/Fc, R&D Systems, Minneapolis, Minn.) were added for a total volume of 50 μl and incubated for 2 hrs. The receptor/Fc constructs were precipitated using Protein A-sepharose beads and the resulting precipitate was washed 4 times with binding buffer.
Reducing sample buffer was added to the pellet and supernatant of each reaction and both were analyzed by 12% SDS-PAGE and transferred to PVDF membranes. […] The soluble receptor/Fc constructs were also detected by using peroxidase-conjugated goat anti-human Fc (Kirkegaard & Perry Laboratories, Inc.)
The receptor/Fc constructs were precipitated by incubation with Protein A sepharose beads. The precipitate was washed and resuspended in reducing sample buffer and separated by 12% SDS-PAGE and transferred to PVDF.

Series [15] in a line: Blood clearance of radioiodinated 2C3-GUS in mice. The settings on record: after intravenous injection into mice, 125I-labelled. In kind it is in vivo, mouse. The source says: 2C3-GUS was radioiodinated with ^125I to a specific activity of 5×10^6 cpm/μg.
The subject of series [16] is human NCI-H358 NSCLC tumors. Description: Localization of 2C3-GUS in SCID mice bearing NCI-H358 tumors. The format is in vivo, mouse.
Setting [17] is: 100 μg i.p. 2 times per wk from day 1, nu/nu mice.

Take `NC(=O)c1nnn(Cc2cc(Cl)c(C(=O)c3ccc(Cl)cc3)c(Cl)c2)c1N` [CAI, carboxyamidotriazole]: in series [1], the “Cancer patients with disease stabilization” value was 49%.
Take “2C3: monoclonal anti-VEGF antibody, IgG2a k, hybridoma ATCC PTA 1595; blocks VEGF binding to VEGFR2 but not VEGFR1”: the “Predominant Reactivity” value in series [2] is reported as “VEGF”. The “Epitope on VEGF” value in series [3] is reported as “not cross-reactive”. For the same molecule, the “Blocks VEGF-induced proliferation” value in series [4] is “Yes”. For the same molecule, the “Immunohistochemical Reactivity Tumor” value in series [5] was 3+. The “VEGF bound to VEGFR2-coated wells, % of amount bound in absence of antibody” value in series [6] is on record as approximately 19%. Further, the “Blocking of VEGF-induced phosphorylation of VEGFR2” value in series [7] is reported as “block VEGF-induced phosphorylation of VEGFR2”. The Tumor growth retardation result in series [8] (10 μg dose twice per wk) is on record as “less marked”. Besides, the Final tumor volume result in series [8] (setting [17]) and in [9] (setting [17]) was “approximately 150 mm^3” each time. Also, the “Effect on growth of A673 tumors” value in series [9] (10 or 1 μg twice per wk, compared to untreated mice) is given as “did slow the growth of A673 tumors”. Also, in series [10] (100 μg i.p., prolonged treatment (FIG. 5A)), the “Mean tumor volume after approximately 14 wk of treatment” value was found to be 84 mm^3. In addition, in [10] (50–100 μg i.p. every 3–5 days, approximately 10 weeks of treatment), the “Mean tumor volume at the end of the study, % of initial mean tumor volume” value is 30%. Besides, in [10] (end of the study (day 116), FIG. 5A), the Mean tumor weight came out at 0.054 g. The “Decrease in mean tumor volume” value in series [10] (start to approximately 14 wk of treatment (FIG. 5A)) is given as “approximately 80%”. For the same molecule, the Tumor growth entry in [11] was “arrested the growth of the tumors”. The “Growth of established tumors” value in series [12] and in [13] was “significantly slowed the growth” in each case.
For 2C3 F(ab′)2: F(ab′)2 of 2C3, the “Blocking of VEGF binding to VEGFR2/Fc in solution” value in series [14] was “blocked the binding of VEGF to VEGFR2/Fc”.
Regarding 2C3-GUS, in [15], the “t½ α” value is reported as “about 6 hours” and the “t½ β” value is “about 25 hours”. Also, in series [16] (immunohistochemistry on frozen sections of tumors), the “Localization after i.v. injection” value was “specifically localized to tumor vasculature and surrounding tumor stroma”. Besides, in series [16] (mouse, in vivo), the “Time of maximal localization after injection” value fell in the range of 24 to 48 h. Moreover, the “Staining of normal tissues” value in series [16] (mouse, in vivo, iv) is reported as “unstained”.
